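Each compound was tested at five concentrations against cells in 96-well plates for 48 hours. The concentration for 50% growth inhibition is given as GI50. Definition used: TGI = concentration required for complete inhibition of growth.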
Assays:
Test in all cases: growth of human tumour cells (NCI), 48 h
OVCAR-3 ovarian = tested on: OVCAR-3 ovarian
OVCAR-5 ovarian = tested on: OVCAR-5 ovarian
HOP-62 NSCLC = tested on: HOP-62 NSCLC
IGROV1 ovarian = tested on: IGROV1 ovarian
MDA-MB-231 breast = tested on: MDA-MB-231 breast
RXF 393 renal = tested on: RXF 393 renal
U251 CNS = tested on: U251 CNS
SNB-75 CNS = tested on: SNB-75 CNS
NCI-H460 lung = tested on: NCI-H460 lung
UO-31 renal = tested on: UO-31 renal
TK-10 renal = tested on: TK-10 renal
OVCAR-4 ovarian = tested on: OVCAR-4 ovarian
SK-OV-3 ovarian = tested on: SK-OV-3 ovarian
786-0 renal = tested on: 786-0 renal
T-47D breast = tested on: T-47D breast
RPMI-8226 leukemia = tested on: RPMI-8226 leukemia
SW-620 colon = tested on: SW-620 colon
HS 578T breast = tested on: HS 578T breast
UACC-62 melanoma = tested on: UACC-62 melanoma
NCI-H226 lung = tested on: NCI-H226 lung
DU-145 prostate = tested on: DU-145 prostate
MCF7 breast = tested on: MCF7 breast
OVCAR-8 ovarian = tested on: OVCAR-8 ovarian
SNB-19 CNS = tested on: SNB-19 CNS
COLO 205 colon = tested on: COLO 205 colon
MALME-3M melanoma = tested on: MALME-3M melanoma
UACC-257 melanoma = tested on: UACC-257 melanoma
HT29 colon = tested on: HT29 colon
M14 melanoma = tested on: M14 melanoma
NCI/ADR-RES ovarian = tested on: NCI/ADR-RES ovarian
HOP-92 NSCLC = tested on: HOP-92 NSCLC
ACHN renal = tested on: ACHN renal
NCI-H522 lung = tested on: NCI-H522 lung
NCI-H23 lung = tested on: NCI-H23 lung
SK-MEL-5 melanoma = tested on: SK-MEL-5 melanoma
MOLT-4 leukemia = tested on: MOLT-4 leukemia
SN12C renal = tested on: SN12C renal
CAKI-1 renal = tested on: CAKI-1 renal
SF-268 CNS = tested on: SF-268 CNS
SK-MEL-2 melanoma = tested on: SK-MEL-2 melanoma
KM12 colon = tested on: KM12 colon
SK-MEL-28 melanoma = tested on: SK-MEL-28 melanoma
EKVX NSCLC = tested on: EKVX NSCLC
SF-295 CNS = tested on: SF-295 CNS
PC-3 prostate = tested on: PC-3 prostate
MDA-MB-435 = tested on: MDA-MB-435
A549 NSCLC = tested on: A549 NSCLC
K-562 leukemia = tested on: K-562 leukemia
HCT-15 colon = tested on: HCT-15 colon
SF-539 CNS = tested on: SF-539 CNS
HCT-116 colon = tested on: HCT-116 colon
BT-549 breast = tested on: BT-549 breast

## CNC1=CC(=O)C2=C(C1=O)C1C3=C(C(=O)C(Br)=C(OC)C3=O)C2c2ccccc21 (centres undefined)
OVCAR-3 ovarian
  GI50: 1.5 µM
  TGI: 3.1 µM
OVCAR-5 ovarian
  GI50: 2.15 µM
  TGI: 8.63 µM
HOP-62 NSCLC
  GI50: 1.55 µM
  TGI: 4.61 µM
IGROV1 ovarian
  GI50: 1.35 µM
  TGI: 3.2 µM
MDA-MB-231 breast
  GI50: 1.41 µM
  TGI: 3.17 µM
RXF 393 renal
  GI50: 1.49 µM
  TGI: 2.99 µM
U251 CNS
  GI50: 1.41 µM
  TGI: 4.26 µM
SNB-75 CNS
  GI50: 5.69 µM
  TGI: 18.2 µM
NCI-H460 lung
  GI50: 11.1 µM
  TGI: > 50 µM
UO-31 renal
  GI50: 1.98 µM
  TGI: 5.87 µM
TK-10 renal
  GI50: 7.56 µM
  TGI: 26.2 µM
OVCAR-4 ovarian
  GI50: 2.3 µM
  TGI: 15.6 µM
SK-OV-3 ovarian
  GI50: 2.15 µM
  TGI: > 50 µM
786-0 renal
  GI50: 1.38 µM
  TGI: 3.5 µM
T-47D breast
  GI50: 1.44 µM
  TGI: 15.7 µM
RPMI-8226 leukemia
  GI50: 2.27 µM
  TGI: > 50 µM
SW-620 colon
  GI50: 2.88 µM
  TGI: > 50 µM
HS 578T breast
  GI50: 2.72 µM
  TGI: 22.1 µM
UACC-62 melanoma
  GI50: 1.47 µM
  TGI: 3.89 µM
NCI-H226 lung
  GI50: 6.66 µM
  TGI: 14.7 µM
DU-145 prostate
  GI50: 5.9 µM
  TGI: 20.8 µM
MCF7 breast
  GI50: 2.65 µM
  TGI: 26.2 µM
OVCAR-8 ovarian
  GI50: 3.87 µM
  TGI: > 50 µM
SNB-19 CNS
  GI50: 2.82 µM
  TGI: 11.6 µM
COLO 205 colon
  GI50: 9.89 µM
  TGI: 22 µM
MALME-3M melanoma
  GI50: 6.84 µM
  TGI: 17.9 µM
UACC-257 melanoma
  GI50: 4.58 µM
  TGI: > 50 µM
HT29 colon
  GI50: 2.71 µM
  TGI: > 50 µM
M14 melanoma
  GI50: 6.76 µM
  TGI: 17.1 µM
NCI/ADR-RES ovarian
  GI50: 1.55 µM
  TGI: 8.18 µM
HOP-92 NSCLC
  GI50: 1.24 µM
  TGI: 2.97 µM
ACHN renal
  GI50: 1.74 µM
  TGI: 6.21 µM
NCI-H522 lung
  GI50: 1.3 µM
  TGI: 2.98 µM
NCI-H23 lung
  GI50: 4.44 µM
  TGI: 16 µM
SK-MEL-5 melanoma
  GI50: 5.46 µM
  TGI: 16.9 µM
MOLT-4 leukemia
  GI50: 1.12 µM
  TGI: > 50 µM
SN12C renal
  GI50: 1.05 µM
  TGI: 2.07 µM
CAKI-1 renal
  GI50: 1.89 µM
  TGI: 4.83 µM
SF-268 CNS
  GI50: 1.87 µM
  TGI: 10.3 µM
SK-MEL-2 melanoma
  GI50: 3.03 µM
  TGI: 14.1 µM
KM12 colon
  GI50: 1.87 µM
  TGI: 5.93 µM
SK-MEL-28 melanoma
  GI50: 2.34 µM
  TGI: > 50 µM
EKVX NSCLC
  GI50: 1.53 µM
  TGI: 3.31 µM
SF-295 CNS
  GI50: 2.85 µM
  TGI: 10 µM
PC-3 prostate
  GI50: 1.08 µM
  TGI: 2.75 µM
MDA-MB-435
  GI50: 6.92 µM
  TGI: 17.1 µM
A549 NSCLC
  GI50: 20.6 µM
  TGI: > 50 µM
K-562 leukemia
  GI50: 1.35 µM
  TGI: 3.01 µM
HCT-15 colon
  GI50: 2.06 µM
  TGI: 10.5 µM
SF-539 CNS
  GI50: 1.23 µM
  TGI: 2.75 µM
HCT-116 colon
  GI50: 1.87 µM
  TGI: 5.7 µM
BT-549 breast
  GI50: 1.6 µM
  TGI: 5.3 µM

— PubChem BioAssay (NCI)
